For six molecules, IC50 results are on record in US6541503B2, “Substituted oxindole derivatives as protein tyrosine kinase and as protein serine/threonine kinase inhibitors” (SmithKline Beecham Corporation, priority 1997, dated 2003).

Molecules are shown by their SMILES. pIC50: −log10 of the molar value. Where two headings read alike, the source gives them in different places. A value given as a limit tells only on which side of the number the result lay.

In assay [1] the target is CDK2 (Homo sapiens, UniProt P24941). The assay is described as follows: Cyclin dependent protein kinase substrate phosphorylation assay, CDK2. The format is biochemical.
Description: CDK1 and CDK2 were both expressed utilizing a baculovirus expression system and were partially purified to comprise 20-80% of total protein, with no detectable competing reactions present. […] Reactions were terminated with 0.2-2 volumes of either 20% acetic acid or 50-100 mM EDTA buffered to pH 7 (substrate consumption<20%). The buffer employed in enzyme assays was either 30 mM HEPES 7.4 containing 0.15 M NaCl and 5% DMSO, the buffer 50 mM MOPS 7.0 containing 0.15 M NaCl and 5% DMSO, or the buffer 100 mM HEPES pH 7.5 containing 0.1 mg /mL BSA and 5% DMSO. Inhibitors were diluted in 100% DMSO prior to addition into the assay. Detection of peptide phosphorylation was accomplished by scintillation counting following either collection of peptide onto phosphocellulose filters (for reactions stopped with acetic acid), collection of peptide in wells of 96 well plates coated with Streptavidin (Pierce) (reactions were stopped with EDTA), or addition of Avidin coated Scintillant impregnated beads (Scintillation Proximity Assays from Amersham, reactions were stopped with EDTA).
For assay [2], the target named is CDK1 (Homo sapiens, UniProt P06493). Kind of assay: Cyclin dependent protein kinase substrate phosphorylation assay, CDK1. The format is biochemical. The settings on record: read-out: CDK1 IC50. As for the experimental part:
Cyclin dependent protein kinase assays utilized the peptides Biotin-aminohexyl-[…] and Biotin-aminohexyl-[…]-NH2 as phosphoryl group acceptors. CDK1 and CDK2 were both expressed utilizing a baculovirus expression system and were partially purified to comprise 20-80% of total protein, with no detectable competing reactions present. Typically, assays were performed by incubating either enzyme (0.2-10 nM), with and without inhibitor, one of the two peptide substrates ([…]), [γ-^32P]ATP ([…]), and 10-20 mM Mg^2+ for periods of time generally within the range 10-120 min. Reactions were terminated with 0.2-2 volumes of either 20% acetic acid or 50-100 mM EDTA buffered to pH 7 (substrate consumption<20%). The buffer employed in enzyme assays was either 30 mM HEPES 7.4 containing 0.15 M NaCl and 5% DMSO, the buffer 50 mM MOPS 7.0 containing 0.15 M NaCl and 5% DMSO, or the buffer 100 mM HEPES pH 7.5 containing 0.1 mg /mL BSA and 5% DMSO. Inhibitors were diluted in 100% DMSO prior to addition into the assay. Detection of peptide phosphorylation was accomplished by scintillation counting following either collection of peptide onto phosphocellulose filters (for reactions stopped with acetic acid), collection of peptide in wells of 96 well plates coated with Streptavidin (Pierce) (reactions were stopped with EDTA), or addition of Avidin coated Scintillant impregnated beads (Scintillation Proximity Assays from Amersham, reactions were stopped with EDTA).

Assay [3] has as its system human diploid fibroblasts (HDF-3). Kind of assay: G1-S progression assay (BrdU incorporation). The assay is classed as cell-based. Particulars: read-out: G1/S Chkpt IC50. How it is done: This assay is designed to determine the ability of compounds to inhibit progression of cells from G1 into S-phase. […] The protocol is as follows:
(1) Grow human diploid fibroblasts (HDF-3) in 100 mm tissue culture dish to confluency. (2) Plate 6-7×10^3 cells/well in a 96 well plate in 100 μl of DMEM. (3) After 16-17 h add various dilutions of test compounds (0.045-100 μM). Dilute compound in DMEM containing DMSO and add 100 μl to each well so that the DMSO conc. is 0.6-0.8% in 200 μl final volume. (4) Two h after addition of compound, add 20 ul of 100 μM BrdU (final conc. 10 μM) Make 100 μM solution in DMEM from 10 mM stock solution. (5) After 4 h, add 200 μl PBS to each well and remove the contents of the wells by inverting the plate and soaking on to the paper towel. Repeat the washing step three times, with 400 ul PBS each time. (6) Fix the cells and denature the DNA by adding 200 μl fixation/denaturation solution to each well for 30-40 min. (7) Remove the fixation/denaturation solution by tapping the plate on the paper towel and add 75 ul of anti BrdU peroxidase antibody to each well. (dilute the antibody to 0.1 U/mL from 15 U/mL stock in PBS containing 1% BSA, Fraction V). Incubate the plate O/N at 4° C. (8) Remove the antibody solution and wash wells four times with 400 μl of PBS. Let the wash solution stay for 3-4 min during each wash. (9) Drain the wells and add 100 μl of chemiluminiscence Elisa reagent (Prepare the reagent 15-20 min before use to bring it to rt by mixing 100 parts of reagent A with 1 part of reagent B). (10) Read the plate in a luminometer. Take 2-3 readings within 6-7 min. Perform the following controls:
Deoxybromouridine (BrdU), anti BrdU peroxidase antibodies, fixation/denaturation solution, chemiluminiscence reagent and BSA Fraction V, were obtained from Boehringer Mannheim. The 96-well white plate with clear bottom were purchased from Corning Costar Corporation. Dulbecco's Modified Eagle Medium containing high glucose, L-glutamine and pyridoxine HCl was obtained from GIBCO BRL.
Background: Dividing cells build labelled thymidine or BrdU into new DNA.

The test system of assay [4] is RKO colon adenocarcinoma cells. The assay is described as follows: FACS assay (cell death by flow cytometry), RKO. The format is cell-based, human. Particulars: 50% cell death, 72 h, read-out: FACS RKO IC50. As for the experimental part:
(§1) These assays allow determination of both cell death and changes in cell cycle profile in cells following treatment of the compound. The assay is performend as follows:
(§2) 1. Cells are incubated in DMEM to which 10% FCS has been added in a humidified incubator at 37° C. and 5% by volume of CO2 in air. The cells are innoculated in 6-well plates at a density of 0.5-5×10^5 cells per well.
(§3) 2. The test compound is added in serial dilutions 24-36 h after plating in 0.5% DMSO. The plates are then incubated a further 72 h in the presence of the compound. During this time, cells in control cultures undergo at least three cell divisions.
(§4) 3. After incubation, the media is collected and cells are harvested by trypsinization. The cells and media are pooled and pelleted by centrifugation.
(§5) 4. The cell pellet is fixed in a final volume of 3 mL of 50% ice cold MeOH and incubated for a minimum of 30 min at −20° C.
(§6) 5. The cells are pelleted by centrifugation and resuspended in 0.5 mL PBS containing 1%FCS, […] Propidium Iodide (PI) and 5 mg/mL RNase A and incubated 30 min at 37° C. in the dark.
(§7) 6. The samples are analysed by flow cytometry using the relative incorporation of PI as a measure of DNA content of each cell. The % Dead cells is recorded as % of events with less than 2N DNA.
(§8) HDF are normal diploid fibroblast cells. RKO are colon adenocarcinoma cells and MES/SA are […].
In general terms: In flow cytometry, cells or beads pass a laser one at a time.

Assay [5] relates to MES/SA ovarian carcinoma cells. Kind of assay: FACS assay (cell death by flow cytometry), MES/SA. The format is cell-based. The settings on record: 50% cell death, 72 h, read-out: FACS MES/SA IC50. As for the experimental part:
as §1, §2, §3, §4, §5, §6, §7, §8

The test system of assay [6] is RKO colon adenocarcinoma cells. The assay is described as follows: MTT assay, RKO. The format is cell-based, human. The settings on record: 72 h, read-out: MTT RKO IC50. How it is done: (§9) Compounds are tested for their ability to inhibit cell proliferation and cell viability. The metabolic conversion of 3-(4,5-dimethylthiazol-2-yl)-2,5-diphenyltetrazolium bromide (MTT, Sigma #M2128) to a reduced form is a commonly used measure of cellular viability. Following is the procedure:
(§10) Cells are maintained in 75 cm^2 tissue culture flasks until ready for use. The cells are grown and plated for the assay in Dulbecco's modified Eagle's media (DMEM) containing 10% fetal bovine serum. For example, the following cell lines can be used: a) human foreskin fibroblasts (HFF); b) HT29 (human colon carcinoma cell line); c)MDA-MB-468 (human breast carcinoma cell line); d) RKO (human colon adenocarcinoma cell line); e) SW620 (human colon carcinoma cell line); f) A549 (human lung carcinoma cell line); and g) MIA PACA (human pancreatic carcinoma cell line). Cells are maintained at 37° C. in 10% CO2, 90% humidified air. Cells are plated in 96-well tissue culture plates at the densities listed below. 100 μL of cell suspension is added to each well of the 96-well plate except the top row of the plate which contains no cells and serves as a reference for the spectrophotometer.
(§11) Cells are incubated overnight in DMEM containing 10% fetal bovine serum at 37° C. in 10% CO2, 90% humidified air prior to dosing. […] Compounds with solubilities of less than 30 μM are dosed at the highest soluble concentration. Stock solutions of compounds are made in 100% dimethyl sulfoxide (DMSO). Stock solutions are diluted in DMEM containing 100 μg/ml gentamicin and 0.3 to 0.6% DMSO at the twice the highest concentration to be placed on the cells. If compounds have been dissolved in DMSO the final concentration of DMSO on the cells is kept below 0.3%. Three-fold serial dilutions are performed on each compound to prepare 10 concentrations of the compound for dosing. 100 μl of diluted compound is added to the 100 μl of media currently on the dish. For each concentration of compound, 2-4 replicate wells are prepared.
(§12) Cells are returned to incubator and allowed to proliferate in the presence of compound for 72 h before addition of MTT. MTT is prepared in phosphate buffered saline (Irvine Scientific #9240) at a concentration of 2 mg/ml. 50 μl per well of MTT solution is added to the 200 μl of media to yield a final concentration of 0.4 mg/ml and plates are returned to the incubator for 4 h. After 4 h incubation the media, compound and MTT mixture is aspirated from the plates and 100 μl of 100% DMSO is added to each well in addition to 25 μl of Sorenson's Buffer (0.1M glycine, 0.1M NaCl, pH 10.5). Quantitation of metabolic reduction of MTT in each plate is performed by reading optical density at 570 nm wavelength on a Molecular Devices UVmax microplate reader. Growth inhibition curves and 50% inhibitory concentrations are determined using Microsoft Excel.
as §8

Assay [7] concerns MDA MB468. The assay is described as follows: MTT assay, MDA MB468. Particulars: read-out: MTT MDA MB468 IC50. The format is cell-based, human. How it is done: as §9, §10, §11, §12
Background: Tetrazolium assays rely on reduction of a dye to a coloured formazan, in cell work by metabolically active cells.

Assay [8] concerns HDF normal diploid fibroblast cells. The assay is described as follows: FACS assay (cell death by flow cytometry), HDF. The format is cell-based, human. Particulars: 50% cell death, 72 h; read-out: FACS HDF IC50. As for the experimental part: as §1, §2, §3, §4, §5, §6, §7, §8
Assay [9] has the same test system. Kind of assay: MTT assay, HDF. The format is cell-based, human. Particulars: 72 h; read-out: MTT HDF IC50. As for the experimental part: as §9
as §10, with “100 μL of cell suspension is added to each well of the 96-well plate except the top row of the plate which contains no cells and serves as a reference for the spectrophotometer.” left out
Cells are returned to incubator and allowed to proliferate in the presence of compound for 72 h before addition of MTT. […] Quantitation of metabolic reduction of MTT in each plate is performed by reading optical density at 570 nm wavelength on a Molecular Devices UVmax microplate reader. Growth inhibition curves and 50% inhibitory concentrations are determined using Microsoft Excel. […]

Sequence of CDK1 (P06493 whole entry, species assumed): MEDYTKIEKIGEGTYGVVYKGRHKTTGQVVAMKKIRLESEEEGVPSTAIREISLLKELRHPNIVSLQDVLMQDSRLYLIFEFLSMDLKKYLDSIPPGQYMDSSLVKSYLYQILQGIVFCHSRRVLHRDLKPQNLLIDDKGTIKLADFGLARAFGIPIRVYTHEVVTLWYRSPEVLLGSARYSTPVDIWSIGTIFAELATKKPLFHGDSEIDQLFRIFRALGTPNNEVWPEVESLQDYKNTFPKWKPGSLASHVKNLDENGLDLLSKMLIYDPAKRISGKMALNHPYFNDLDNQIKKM
Sequence of CDK1 (P14635 whole entry partner, species assumed): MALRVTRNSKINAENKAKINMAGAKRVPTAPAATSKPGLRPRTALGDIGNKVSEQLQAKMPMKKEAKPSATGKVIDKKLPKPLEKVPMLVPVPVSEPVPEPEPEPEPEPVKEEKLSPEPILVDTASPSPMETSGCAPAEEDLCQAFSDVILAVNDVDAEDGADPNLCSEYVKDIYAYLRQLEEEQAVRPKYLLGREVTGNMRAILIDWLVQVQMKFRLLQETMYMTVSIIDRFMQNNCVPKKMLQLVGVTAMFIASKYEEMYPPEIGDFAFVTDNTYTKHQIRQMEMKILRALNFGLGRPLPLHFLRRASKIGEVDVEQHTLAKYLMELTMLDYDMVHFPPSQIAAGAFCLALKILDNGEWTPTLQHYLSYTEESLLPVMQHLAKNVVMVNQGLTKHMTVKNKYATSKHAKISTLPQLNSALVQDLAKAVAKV

For `CCC(C)Cc1cccc2c1C(=NNc1ccc(S(N)(=O)=O)cc1)C(=O)N2` (centres unmarked) [Example 11, 4-{N′-[4-(2-methylbutyl)-2-oxo-1,2-dihydro-indol-3-ylidene]-hydrazino}-benzenesulfonamide], the pIC50 in assay [1] is 8.00 to 9.00; in assay [2] it was 7.30 to 7.96; in [3] (Homo sapiens, Fibroblast) it was 5.30 to 5.96; in [4] (Homo sapiens) it was 5.30 to 5.96.

As to `COC(=O)c1ccc2c(c1)/C(=C/Nc1ccc(S(N)(=O)=O)cc1)C(=O)N2` [Example 27, 2-Oxo-3-(4-sulfamoyl-phenylamino-methylene)-2,3-dihydro-1H-indole-5-carboxylic acid methyl ester], in assay [2], the pIC50 is 7.30 to 7.96.

For `CN(C)S(=O)(=O)c1ccc(NC=C2C(=O)Nc3ccc(-c4cnco4)cc32)cc1` [Example 35, N,N-Dimethyl-4-[(5-oxazol-5-yl-2-oxo-1,2-dihydro-indol-3-ylidenemethyl)-amino]-benzenesulfonamide], the pIC50 in [1] was 8.00 to 9.00; in assay [2] it was 7.30 to 7.96; in assay [4] (Homo sapiens), 5.30 to 5.96; in [5] (Homo sapiens, MES-SA), < 5.30; in [6] (Homo sapiens), 5.30 to 5.96; in assay [7] (Homo sapiens, MDA-MB-468, 72 h) it was < 5.30.

Take `NS(=O)(=O)c1ccc(NN=C2C(=O)Nc3ccc(-c4cnco4)cc32)cc1` [Example 36, 4-[1-(5-Oxazol-5-yl-2-oxo-1,2-dihydro-indol-3-ylidene)-hydrazino]-benzenesulfonamide]: the pIC50 was 6.00 to 6.22 in assay [3]; < 5.30 in [8]; 6.00 to 6.22 in assay [4]; 6.30 to 7.00 in assay [5]; 5.30 to 5.96 in [9]; 6.00 to 6.22 in assay [6]. Moreover, the pIC50 in assay [7] (72 h) was 6.00 to 6.22.

In the case of `O=C1Nc2ccc3ncsc3c2C1=CNc1ccc2nn[nH]c2c1` [Example 101, 8-(3H-Benzotriazol-5-ylaminomethylene)-6,8-dihydro-1-thia-3,6-diaza-as-indacene-7-one], the pIC50 in assay [1] is 7.30 to 7.96; in [2], 7.00 to 7.29; in [4] (Homo sapiens), < 5.30; in assay [7] (Homo sapiens, MDA-MB-468, 72 h), 5.30 to 5.96.

Turning to `CC(C)COC(=O)c1ccc2c(c1)C(=CNc1ccc(S(N)(=O)=O)cc1)C(=O)N2` [Example 103, 2-Oxo-3-(4-sulfamoyl-phenylamino-methylene)-2,3dihydro-1H-indole-5-carboxylic acid isobutyl ester], the pIC50 in assay [1] was 8.00 to 9.00; in assay [2], 7.30 to 7.96; in assay [6] (Homo sapiens), 5.30 to 5.96; in assay [7] (Homo sapiens, MDA-MB-468, 72 h), 5.30 to 5.96.
